Measurements taken from patent publication US11098061B2 (Celgene CAR LLC, priority 2013, dated 2021).

Experiments:
[1] = molecular target: p38a activated, mitogen-activated protein kinase-activated protein kinase 2 (MAPKAP-K2 or MK-2) enzyme (Homo sapiens (Human), UniProt P49137); assay: MK2 Omnia continuous-read kinase assay for compound potency; assay type: biochemical; conditions: [MK-2]=0.4 nM, [ATP]=1.0 mM, [ST3-Sox]=10 μM
Excerpt: The protocol below describes a continuous-read kinase assay optimized to measure potency of compounds against p38a activated, mitogen-activated protein kinase-activated protein kinase 2 (MAPKAP-K2 or MK-2) enzyme. The mechanics of the assay platform are best described by the vendor (Invitrogen, Carlsbad, Calif.) on their website at the following URL: invitrogen.com/search/global/searchAction. action?resultPage=1 &resultsPerPage=15 &query=om nia&personaFilterTerm=Support+%26+Troubleshoot
Kinase reactions were started with the addition of 40 μL of MK-2 enzyme and monitored every 71 seconds for 30-240 minutes at λex360/λem485 in a Synergy^2, Synergy^4 or Synergy H^4 plate reader from BioTek (Winooski, Vt.). […] Initial velocity (0 minutes to +30 minutes) from each reaction was estimated from the slope of a plot of relative fluorescence units vs time (minutes) and normalized to the no enzyme and no inhibitor control groups for % Inhibition. The resulting % Inhibition values were then plotted against inhibitor concentration to estimate IC50 from log[Inhibitor] vs Response, Variable Slope model in GraphPad Prism from GraphPad Software (San Diego, Calif.).
[MK-2]=0.4 nM, [ATP]=1.0 mM and [ST3-Sox]=10 μM (ATP ^appKM=8-10 μM)

MK2 = MK2 (Homo sapiens (Human), UniProt P49137); assay: MK2 modification assessment by whole protein mass spectrometry; assay type: binding; conditions: intact MK2, 60 min, 10-fold excess of compound to protein
Method: Modification of MK2 is measured by whole protein MS analysis. […] 5 μL aliquots of the samples were diluted with 15 μL of 0.2% TFA prior to micro C4 ZipTipping directly onto the MALDI target using sinapinic acid as the desorption matrix (10 mg/ml in 0.1% TFA:Acetonitrile 50:50). Analysis was performed on a AB Sciex 4800 MALDI TOF/TOF retro fitted with an HM2 detector (CovalX). Percent modification of target MK2 (i.e., the percent of total MK2 modified by the test compound) for each compound was calculated by subtracting the centroid mass of the compound treated MK2 from the centroid mass of the control MK2 and dividing that value with the mass of the compound.

p38a activated, mitogen-activated protein kinase-activated protein kinase 2 (MAPKAP-K2 or MK-2) enzyme, sequence (P49137 whole entry): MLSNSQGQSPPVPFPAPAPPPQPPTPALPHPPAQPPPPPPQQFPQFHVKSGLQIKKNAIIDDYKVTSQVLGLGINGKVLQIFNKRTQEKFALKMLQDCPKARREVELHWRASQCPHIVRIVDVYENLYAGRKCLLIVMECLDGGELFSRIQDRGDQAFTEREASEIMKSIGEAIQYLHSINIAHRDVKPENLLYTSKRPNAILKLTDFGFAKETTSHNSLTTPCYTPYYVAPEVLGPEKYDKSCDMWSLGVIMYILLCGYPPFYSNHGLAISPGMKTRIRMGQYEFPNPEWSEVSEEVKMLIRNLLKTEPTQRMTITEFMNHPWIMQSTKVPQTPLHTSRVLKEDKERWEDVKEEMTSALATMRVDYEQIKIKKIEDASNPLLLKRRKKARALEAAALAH
MK2, sequence (P49137 whole entry): as above

IC50 [1]	MK2 Mass Mod (MK2)	Compound
> 1 µM	G (mass modification ≤30%)	C=CC(=O)N[C@H]1COC[C@H]1NC(=O)c1ccc2cc3n(c2c1)C1(CCC1)CNC3=O (racemic) [Compound V-49, Cis-N-(4-acrylamidotetrahydrofuran-3-yl)-1′-oxo-2′,3′-dihydro-1′H-spiro[cyclobutane-1,4′-pyrazino[1,2-a]indole]-7′-carboxamide (racemic)]
0.501 to 0.999 µM	E (mass modification of ≥70%)	C=CC(=O)Nc1cc(NC(=O)c2ccc3cc4n(c3c2)CCNC4=O)ccc1N1CCN(CC)CC1 [Compound V-1, N-(3-acrylamido-4-(4-ethylpiperazin-1-yl)phenyl)-1-oxo-1,2,3,4-tetrahydropyrazino[1,2-a]indole-7-carboxamide]
> 1 µM	G (mass modification ≤30%)	CN(C)C/C=C/C(=O)N1CCOc2ccc(NC(=O)c3ccc4cc5n(c4c3)CCNC5=O)cc21 [Compound V-4, (E)-N-(4-(4-(dimethylamino)but-2-enoyl)-3,4-dihydro-2H-benzo[b][1,4]oxazin-6-yl)-1-oxo-1,2,3,4-tetrahydropyrazino[1,2-a]indole-7-carboxamide]
> 1 µM	G (mass modification ≤30%)	CN(C)C/C=C/C(=O)Nc1ccccc1NC(=O)c1ccc2cc3n(c2c1)CCNC3=O [Compound V-5, (E)-N-(2-(4-(dimethylamino)but-2-enamido)phenyl)-1-oxo-1,2,3,4-tetrahydropyrazino[1,2-a]indole-7-carboxamide]
> 1 µM	E (mass modification of ≥70%)	C=CC(=O)Nc1ccccc1NC(=O)c1ccc2cc3n(c2c1)CCNC3=O [Compound V-8, N-(2-acrylamidophenyl)-1-oxo-1,2,3,4-tetrahydropyrazino[1,2-a]indole-7-carboxamide]
0.101 to 0.5 µM	E (mass modification of ≥70%)	C=CC(=O)N1CCc2ccc(NC(=O)c3ccc4cc5n(c4c3)CCNC5=O)cc21 [Compound V-9, N-(1-acryloylindolin-6-yl)-1-oxo-1,2,3,4-tetrahydropyrazino[1,2-a]indole-7-carboxamide]
> 1 µM	E (mass modification of ≥70%)	C=CC(=O)Nc1ccccc1NC(=O)c1ccc2cc3n(c2c1)C1(CCC1)CNC3=O [Compound V-14, N-(2-acrylamidophenyl)-1′-oxo-2′,3′-dihydro-1′H-spiro[cyclobutane-1,4′-pyrazino [1,2-a]indole]-7′-carboxamide]
0.501 to 0.999 µM	E (mass modification of ≥70%)	C=CC(=O)Nc1cccc2oc(-c3ccc4cc5n(c4c3)CCNC5=O)nc12 [Compound V-31, N-(2-(1-oxo-1,2,3,4-tetrahydropyrazino[1,2-a]indol-7-yl)benzo[d]oxazol-4-yl)acrylamide]
< 0.1 µM	E (mass modification of ≥70%)	C=CC(=O)N1CCOc2ncc(-c3cc4c(cn3)CCc3c-4[nH]c4c3C(=O)NCC4)cc21 [II-18, 2-(1-acryloyl-2,3-dihydro-1H-pyrido[2,3-b][1,4]oxazin-7-yl)-8,9,10,11-tetrahydro-SH-pyrido[3′,4′:4,5]pyrrolo[2,3-f]isoquinolin-7(6H)-one]
< 0.1 µM	E (mass modification of ≥70%)	C=CC(=O)Nc1cc(-c2nccc(-c3cc4c([nH]3)CCNC4=O)n2)cnc1OCCOC [II-21, N-(2-(2-methoxyethoxy)-5-(4-(4-oxo-4,5,6,7-tetrahydro-1H-pyrrolo[3,2-c]pyridin-2-yl)pyrimidin-2-yl)pyridin-3-yl)acrylamide]

The next lines start with the compound.

Compound	IC50 [1]	MK2 Mass Mod (MK2)
C=CC(=O)NC1CCCC1NC(=O)c1ccc2cc3n(c2c1)C1(CCC1)CNC3=O (racemic) [Compound V-55, N-cis-(2-acrylamidocyclopentyl)-1′-oxo-2′,3′-dihydro-1′H-spiro[cyclobutane-1,4′-pyrazino[1,2-a]indole]-7′-carboxamide (racemic)]	> 1 µM	G (mass modification ≤30%)
C=CC(=O)N[C@H]1CN(C(=O)c2ccc3cc4n(c3c2)CCNC4=O)CC[C@H]1C [Compound V-2, N-((3R,4R)-4-methyl-1-(1-oxo-1,2,3,4-tetrahydropyrazino[1,2-a]indole-7-carbonyl)piperidin-3-yl)acrylamide]	> 1 µM	G (mass modification ≤30%)
C=CC(=O)N1CCC[C@@H](NC(=O)c2ccc3cc4n(c3c2)CCNC4=O)C1 [Compound V-3, (R)—N-(1-acryloylpiperidin-3-yl)-1-oxo-1,2,3,4-tetrahydropyrazino[1,2-a]indole-7-carboxamide]	> 1 µM	G (mass modification ≤30%)
C=CC(=O)Nc1cccc(NC(=O)c2ccc3cc4n(c3c2)CCNC4=O)c1 [Compound V-7, N-(3-acrylamidophenyl)-1-oxo-1,2,3,4-tetrahydropyrazino[1,2-a]indole-7-carboxamide]	> 1 µM	F (mass modification of 31-69%)
C=CC(=O)NCc1csc(NC(=O)c2ccc3cc4n(c3c2)C2(CCC2)CNC4=O)n1 [Compound V-43, N-(4-(acrylamidomethyl)thiazol-2-yl)-1′-oxo-2′,3′-dihydro-1′H-spiro[cyclobutane-1,4′-pyrazino[1,2-a]indole]-7′-carboxamide]	> 1 µM	G (mass modification ≤30%)
C=CC(=O)N1CCC[C@H](NC(=O)c2ccc3cc4n(c3c2)C2(CCC2)CNC4=O)C1 [Compound V-47, (S)—N-(1-acryloylpiperidin-3-yl)-1′-oxo-2′,3′-dihydro-1′H-spiro[cyclobutane-1,4′-pyrazino[1,2-a]indole]-7′-carboxamide]	> 1 µM	G (mass modification ≤30%)
C=CC(=O)N1Cc2cccc(NC(=O)c3ccc4cc5n(c4c3)C3(CCC3)CNC5=O)c2C1 [Compound V-48, N-(2-acryloylisoindolin-4-yl)-1′-oxo-2′,3′-dihydro-1′H-spiro[cyclobutane-1,4′-pyrazino [1,2-a]indole]-7′-carboxamide]	> 1 µM	G (mass modification ≤30%)
C=CC(=O)N[C@@H]1CCCN(C(=O)c2ccc3cc4n(c3c2)C2(CCC2)CNC4=O)C1 [Compound V-52, (R)—N-(1-(1′-oxo-2′,3′-dihydro-1′H-spiro[cyclobutane-1,4′-pyrazino [1,2-a]indol]-7′-ylcarbonyl)piperidin-3-yl)acrylamide]	> 1 µM	G (mass modification ≤30%)
C=CC(=O)Nc1cc(NC(=O)c2ccc3cc4n(c3c2)C2(CCC2)CNC4=O)ccc1C [Compound V-53, N-(3-acrylamido-4-methylphenyl)-1′-oxo-2′,3′-dihydro-1′H-spiro[cyclobutane-1,4′-pyrazino[1,2-a]indole]-7′-carboxamide]	> 1 µM	E (mass modification of ≥70%)
C=CC(=O)Nc1ccc2[nH]c(-c3ccc4cc5n(c4c3)C3(CCC3)CNC5=O)nc2c1 [Compound V-59, N-(2-(1′-oxo-2′,3′-dihydro-1′H-spiro[cyclobutane-1,4′-pyrazino [1,2-a]indol]-7′-yl)-1H-benzo[d]imidazol-5-yl)acrylamide]	< 0.1 µM	G (mass modification ≤30%)
C=CC(=O)Nc1ccc2oc(-c3ccc4cc5n(c4c3)C3(CCC3)CNC5=O)nc2c1 [Compound V-60, N-(2-(1′-oxo-2′,3′-dihydro-1′H-spiro[cyclobutane-1,4′-pyrazino [1,2-a]indol]-7′-yl)benzo[d]oxazol-5-yl)acrylamide]	< 0.1 µM	G (mass modification ≤30%)
C=CC(=O)Nc1cc(-c2cc3c(cn2)CCc2c4c(n(C)c2-3)CC2(CC2)NC4=O)ccc1OCCOC [II-7, N-(2-(2-methoxyethoxy)-5-(11′-methyl-7′-oxo-5′,6′,7′,8′,10′,11′-hexahydrospiro[cyclopropane-1,9′-pyrido[3′,4′:4,5]pyrrolo[2,3-f]isoquinolin]-2′-yl)phenyl)acrylamide]	0.101 to 0.5 µM	E (mass modification of ≥70%)
C=CC(=O)N1CCOc2ncc(-c3ncc4c(n3)-c3[nH]c5c(c3CC4)C(=O)NCC5)cc21 [II-17, 2-(1-acryloyl-2,3-dihydro-1H-pyrido[2,3-b][1,4]oxazin-7-yl)-8,9,10,11-tetrahydro-SH-pyrido[3′,4′:4,5]pyrrolo[3,2-h]quinazolin-7(6H)-one]	< 0.1 µM	E (mass modification of ≥70%)
C=CC(=O)Nc1cc(-c2nccc(-c3cc4c([nH]3)CCNC4=O)n2)ccc1OCCOC [II-22, N-(2-(2-methoxyethoxy)-5-(4-(4-oxo-4,5,6,7-tetrahydro-1H-pyrrolo[3,2-c]pyridin-2-yl)pyrimidin-2-yl)phenyl)acrylamide]	< 0.1 µM	E (mass modification of ≥70%)
